Patent US20240269139A1, “COMPOUNDS FOR TARGETED PROTEIN DEGRADATION OF KINASES” (DANA-FARBER CANCER INSTITUTE, INC., priority 2020, published 2024)
“And” between values parts separate entries of the source, which are not always exact repeats. Equal entries are not always repeated. Where two headings read alike, the source gives them in different places.

What was measured:
Format in all cases: cell-based
[1] = target: T1, protein kinases (human kinome) (Homo sapiens, UniProt O14965)
T1 sequence (O14965 1-403): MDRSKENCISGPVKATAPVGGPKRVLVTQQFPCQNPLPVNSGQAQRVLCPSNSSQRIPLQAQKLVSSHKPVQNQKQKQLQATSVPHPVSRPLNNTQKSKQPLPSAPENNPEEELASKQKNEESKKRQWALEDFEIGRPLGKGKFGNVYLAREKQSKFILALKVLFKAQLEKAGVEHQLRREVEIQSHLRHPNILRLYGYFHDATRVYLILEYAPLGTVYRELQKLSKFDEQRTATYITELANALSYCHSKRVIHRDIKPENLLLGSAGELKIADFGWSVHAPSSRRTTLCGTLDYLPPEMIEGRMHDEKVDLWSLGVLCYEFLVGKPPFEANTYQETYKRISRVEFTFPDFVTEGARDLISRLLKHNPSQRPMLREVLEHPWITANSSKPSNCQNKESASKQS

[2] = target: T2, protein kinases (human kinome) (Homo sapiens, UniProt O75385); conditions: for logFC: ULK1 (O75385) protein abundance, degrader vs DMSO, down; for logFC ULK1: ULK1 O75385, experiment wp160
T2 sequence (O75385 1-1050): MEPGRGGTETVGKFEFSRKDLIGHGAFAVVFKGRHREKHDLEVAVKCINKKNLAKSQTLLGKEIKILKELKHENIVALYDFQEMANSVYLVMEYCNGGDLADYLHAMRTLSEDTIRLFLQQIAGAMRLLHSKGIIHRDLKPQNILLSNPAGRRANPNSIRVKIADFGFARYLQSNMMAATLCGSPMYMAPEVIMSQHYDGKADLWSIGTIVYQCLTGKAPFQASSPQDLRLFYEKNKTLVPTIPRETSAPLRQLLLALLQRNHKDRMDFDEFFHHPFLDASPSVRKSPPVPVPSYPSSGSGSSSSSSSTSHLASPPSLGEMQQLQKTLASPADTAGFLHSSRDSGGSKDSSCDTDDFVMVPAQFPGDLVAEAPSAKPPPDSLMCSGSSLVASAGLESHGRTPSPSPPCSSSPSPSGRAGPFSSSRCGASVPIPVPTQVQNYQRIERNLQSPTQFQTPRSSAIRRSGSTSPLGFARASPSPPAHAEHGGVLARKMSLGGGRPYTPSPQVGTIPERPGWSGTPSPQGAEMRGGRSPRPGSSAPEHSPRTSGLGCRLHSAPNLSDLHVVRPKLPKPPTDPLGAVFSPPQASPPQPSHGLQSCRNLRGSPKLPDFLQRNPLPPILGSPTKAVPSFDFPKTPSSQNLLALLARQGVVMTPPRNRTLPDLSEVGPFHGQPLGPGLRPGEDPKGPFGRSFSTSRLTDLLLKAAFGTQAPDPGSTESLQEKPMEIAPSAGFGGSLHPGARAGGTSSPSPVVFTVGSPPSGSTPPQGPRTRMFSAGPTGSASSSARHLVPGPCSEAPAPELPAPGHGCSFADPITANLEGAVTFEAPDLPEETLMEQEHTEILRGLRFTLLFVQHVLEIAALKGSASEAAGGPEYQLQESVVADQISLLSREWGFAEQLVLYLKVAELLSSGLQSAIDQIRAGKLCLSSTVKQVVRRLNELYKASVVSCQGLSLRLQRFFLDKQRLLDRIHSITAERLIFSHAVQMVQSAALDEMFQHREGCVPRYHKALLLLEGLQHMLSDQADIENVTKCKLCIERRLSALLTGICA

[3] = target: protein kinases (human kinome) (Homo sapiens, UniProt P11802)
[4] = target: protein kinases (human kinome) (Homo sapiens, UniProt P16591); conditions: for logFC of FER (P16591-1): down
[5] = target: protein kinases (human kinome) (Homo sapiens, UniProt P30291)
[6] = system: protein kinases (human kinome); conditions: for logFC of SRC: Accession P12931-2; for logFC of FER: FER P16591-3; for logFC LCK: accession P06239-3; for logFC PTK2B: accession Q14289-2
[7] = Experiment wp107, direction down
[8] = Experiment wp117, direction down
[9] = experiment wp045, direction of change down
[10] = experiment wp103, direction of change down
[11] = experiment wp107, direction of change down
[12] = experiment wp117, direction of change down

protein kinases (human kinome) (Homo sapiens, UniProt P16591), sequence (P16591 whole entry): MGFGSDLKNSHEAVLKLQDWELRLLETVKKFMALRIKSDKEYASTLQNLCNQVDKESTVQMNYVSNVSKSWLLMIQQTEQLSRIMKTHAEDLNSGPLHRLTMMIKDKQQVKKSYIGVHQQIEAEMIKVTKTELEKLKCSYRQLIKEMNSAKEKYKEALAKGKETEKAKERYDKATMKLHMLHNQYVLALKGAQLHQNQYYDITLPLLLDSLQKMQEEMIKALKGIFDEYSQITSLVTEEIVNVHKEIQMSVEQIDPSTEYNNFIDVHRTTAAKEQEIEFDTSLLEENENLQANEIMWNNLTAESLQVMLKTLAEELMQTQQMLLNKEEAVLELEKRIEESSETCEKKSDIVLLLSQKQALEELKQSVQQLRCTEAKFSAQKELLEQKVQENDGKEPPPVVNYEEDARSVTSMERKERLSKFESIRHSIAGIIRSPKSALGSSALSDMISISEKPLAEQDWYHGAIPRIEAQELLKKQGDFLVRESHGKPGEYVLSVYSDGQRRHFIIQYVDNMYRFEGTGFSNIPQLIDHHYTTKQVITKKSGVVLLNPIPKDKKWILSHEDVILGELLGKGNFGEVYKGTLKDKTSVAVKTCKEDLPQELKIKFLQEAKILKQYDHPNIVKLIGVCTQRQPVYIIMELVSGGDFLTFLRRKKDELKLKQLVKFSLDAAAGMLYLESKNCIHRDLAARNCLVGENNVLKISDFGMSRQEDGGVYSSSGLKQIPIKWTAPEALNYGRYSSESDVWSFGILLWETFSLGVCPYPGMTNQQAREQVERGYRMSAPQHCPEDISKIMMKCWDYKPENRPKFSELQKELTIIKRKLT
protein kinases (human kinome) (Homo sapiens, UniProt P11802), sequence (P11802 whole entry): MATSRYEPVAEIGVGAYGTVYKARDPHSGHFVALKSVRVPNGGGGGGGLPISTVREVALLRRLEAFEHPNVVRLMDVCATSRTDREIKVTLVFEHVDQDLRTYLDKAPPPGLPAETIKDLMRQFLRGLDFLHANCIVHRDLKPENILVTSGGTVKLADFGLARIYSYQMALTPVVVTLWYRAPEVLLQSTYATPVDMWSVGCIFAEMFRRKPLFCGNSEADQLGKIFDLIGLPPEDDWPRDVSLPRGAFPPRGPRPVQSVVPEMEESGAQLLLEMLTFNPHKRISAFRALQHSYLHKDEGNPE
protein kinases (human kinome) (Homo sapiens, UniProt P30291), sequence (P30291 whole entry): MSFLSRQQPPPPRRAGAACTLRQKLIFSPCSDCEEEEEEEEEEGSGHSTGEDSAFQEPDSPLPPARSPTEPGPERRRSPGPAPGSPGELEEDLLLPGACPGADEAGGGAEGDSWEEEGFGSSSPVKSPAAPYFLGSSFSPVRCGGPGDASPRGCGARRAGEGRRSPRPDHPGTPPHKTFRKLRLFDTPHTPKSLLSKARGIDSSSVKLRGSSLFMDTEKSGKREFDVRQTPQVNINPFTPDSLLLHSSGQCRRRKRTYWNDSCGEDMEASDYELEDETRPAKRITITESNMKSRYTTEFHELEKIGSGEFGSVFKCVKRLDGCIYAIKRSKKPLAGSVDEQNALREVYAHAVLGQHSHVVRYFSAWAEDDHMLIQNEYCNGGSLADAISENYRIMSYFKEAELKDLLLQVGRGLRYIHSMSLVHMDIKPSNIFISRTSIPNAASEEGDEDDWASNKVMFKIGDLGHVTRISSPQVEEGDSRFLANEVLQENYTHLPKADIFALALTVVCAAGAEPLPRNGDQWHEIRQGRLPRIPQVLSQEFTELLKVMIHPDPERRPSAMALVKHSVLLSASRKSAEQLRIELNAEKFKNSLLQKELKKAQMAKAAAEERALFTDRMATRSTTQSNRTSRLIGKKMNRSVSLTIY

Cc1ccc(NC(=O)c2cccc(C(F)(F)F)c2)cc1N1Cc2cnc(Nc3ccc(N4CCN(Cc5cn(CCCCCOc6cccc7c6C(=O)N(C6CCC(=O)NC6=O)C7=O)nn5)CC4)nc3)nc2N(C)C1=O (stereo not drawn) [DB0646, N-(3-(7-((6-(4-((1-(5-((2-(2,6-Dioxopiperidin-3-yl)-1,3-dioxoisoindolin-4-yl)oxy)pentyl)-1H-1,2,3-triazol-4-yl)methyl)piperazin-1-v)pyridin-3-yl)amino)-1-methyl-2-oxo-1,4-dihydropyrimido[4,5-d]pyrimidin-3(2H)-yl)-4-methylphenyl)-3-(trifluoromethyl)benzamide]
logFC AURKA (O14965) ([1]; experiment wp045): −0.3242
logFC AURKA (O14965) ([1]; experiment wp160, 4 hr): −0.4478
logFC ([2]; 4 hr): −0.3412
logFC ([2]; 8 hr): −0.3989
logFC ULK1 ([2]; 4 hr): −0.3412
logFC ULK1 ([2]; 8 hr): −0.3989
logFC CDK4 (P11802) ([3]; experiment wp045): −0.9012
logFC CDK4 (P11802) ([3]; experiment wp103): −0.5015
logFC CDK4 (P11802) ([3]; experiment wp107): −0.5565
logFC CDK4 (P11802) ([3]; experiment wp117): −0.6673
logFC CDK4 (P11802) ([3]; experiment wp152): −0.736
logFC CDK4 (P11802) ([3]; experiment wp160, 4 hr): −0.7263
logFC CDK4 (P11802) ([3]; experiment wp160, 8 hr): −1.114
logFC of FER (P16591-1) ([4]; Experiment wp045): −1.712
logFC of FER (P16591-1) ([4]; Experiment wp103): −1.628
logFC of FER (P16591-1) ([4]; Experiment wp105): −0.8737
logFC of FER (P16591-1) ([4]; Experiment wp107): −1.722
logFC of FER (P16591-1) ([4]; Experiment wp117): −1.753
logFC of FER (P16591-1) ([4]; Experiment wp160, 2 hr): −0.5384
logFC of FER (P16591-1) ([4]; Experiment wp160, 4 hr): −1.454
logFC of FER (P16591-1) ([4]; Experiment wp160, 8 hr): −1.737
logFC of FER ([4]; FER P16591-1, experiment wp045): −1.712
logFC of FER ([4]; FER P16591-1, experiment wp103): −1.628
logFC of FER ([4]; FER P16591-1, experiment wp105): −0.8737
logFC of FER ([4]; FER P16591-1, experiment wp107): −1.722
logFC of FER ([4]; FER P16591-1, experiment wp117): −1.753
logFC of FER ([4]; FER P16591-1, experiment wp160, 2 hr): −0.5384
logFC of FER ([4]; FER P16591-1, experiment wp160, 4 hr): −1.454
logFC of FER ([4]; FER P16591-1, experiment wp160, 8 hr): −1.737
logFC of FER ([4]; FER P16591, experiment wp152): −1.698
logFC of FER (P16591) ([4]; experiment wp152): −1.698
logFC of WEE1 ([5]; WEE1 P30291-1, experiment wp160, 8 hr): −0.352
logFC WEE1 (P30291-1) ([5]; experiment wp160, 8 hr): −0.352
logFC FYN ([6]; Accession P06241-2, experiment wp107): −0.3999
logFC FYN ([6]; Accession P06241-2, experiment wp160, 4 hr): −0.3922
logFC of SRC ([6]; experiment wp045): −0.4152
logFC of SRC ([6]; experiment wp105): −0.4412
logFC of SRC ([6]; experiment wp107): −0.4274
logFC of SRC ([6]; experiment wp117): −0.3839
logFC ([6]; CDK11B P21127-3, experiment wp103): −0.3334
logFC MAP3K20 (Q9NYL2-2) ([6]; Experiment wp045): −1.182
logFC MAPK8 (P45983-4) ([6]; Experiment wp045, direction down): −0.9774
logFC MAP3K20 (Q9NYL2-2) ([6]; Experiment wp103): −0.7004
logFC of MAPK8 (P45983-2) ([6]; Experiment wp103): −0.6109
logFC MAPK8 (P45983-2) ([6]; Experiment wp103, direction down): −0.6109
logFC MAPK8 (P45983-3) ([6]; Experiment wp105, direction down): −0.4094
logFC MAP3K20 (Q9NYL2-2) ([6]; Experiment wp107): −0.7825
logFC of MAPK8 (P45983-2) ([6]; Experiment wp107): −0.723
logFC MAPK8 (P45983-2) [6, 7]: −0.723
logFC TNK2 (Q07912-3) [6, 7]: −0.8258
logFC MAP3K20 (Q9NYL2-2) ([6]; Experiment wp114): −0.8962
logFC MAP3K20 (Q9NYL2-2) ([6]; Experiment wp117): −0.6701
logFC of MAPK8 (P45983-2) ([6]; Experiment wp117): −0.7835
logFC MAPK8 (P45983-2) [6, 8]: −0.7835
logFC TNK2 (Q07912-3) [6, 8]: −0.9833
logFC MAPK8 (P45983-3) ([6]; Experiment wp160, 4 hr, direction down): −0.611
logFC MAPK8 (P45983-3) ([6]; Experiment wp160, 8 hr, direction down): −1.01
logFC ([6]; FER (P16591-3), experiment wp114, direction down): −0.5921
logFC ([6]; FER (P16591-3), experiment wp172, direction down): −1.014
logFC of FER ([6]; experiment wp114): −0.5921
logFC of FER ([6]; experiment wp172): −1.014
logFC FYN ([6]; FYN P06241-2, experiment wp107): −0.3999
logFC FYN ([6]; FYN P06241-2, experiment wp160, 4 hr): −0.3922
logFC ([6]; GK P32189-3, experiment wp114): −0.3632
logFC LCK [6, 9]: −0.5631
logFC LCK [6, 10]: −0.4496
logFC LCK [6, 11]: −0.3963
logFC LCK [6, 12]: −0.4202
logFC ([6]; LIMK2 (P53671-3), experiment wp105, direction down): −0.7299
logFC of LIMK2 ([6]; LIMK2 P53671-3, experiment wp105): −0.7299
logFC ([6]; LYN (P07948-2), experiment wp105): −0.985
logFC MAPK8 ([6]; MAPK8 P45983-4, experiment wp045): −0.9774
logFC MAPK14 ([6]; MAPK14, accession Q16539-2, experiment wp105, direction of change down): −0.5822
logFC MAPK14 ([6]; MAPK14, accession Q16539-2, experiment wp117, direction of change down): −0.6436
logFC MAPK14 ([6]; MAPK14, accession Q16539-2, experiment wp160, 4 hr, direction of change down): −0.7051
logFC MAPK14 ([6]; MAPK14, accession Q16539-2, experiment wp160, 8 hr, direction of change down): −1.092
logFC MAPK14 ([6]; MAPK14 Q16539-2, experiment wp105): −0.5822
logFC MAPK14 ([6]; MAPK14 Q16539-2, experiment wp117): −0.6436
logFC MAPK14 ([6]; MAPK14 Q16539-2, experiment wp160, 4 hr): −0.7051
logFC MAPK14 ([6]; MAPK14 Q16539-2, experiment wp160, 8 hr): −1.092
targets with significantly different degrader efficacy in the different cell lines with no obvious difference in protein expression ([6]; MOLT-4, KELLY, HEK293T): CSK, MAPK9
logFC ([6]; PTK2B (Q14289-2), experiment wp107, direction down): −2.484
logFC ([6]; PTK2B (Q14289-2), experiment wp117, direction down): −2.583
logFC PTK2B [6, 11]: −2.484
logFC PTK2B [6, 12]: −2.583
logFC ([6]; SRC (P12931-2) protein abundance, degrader vs DMSO, down): −0.4152 and −0.4412 and −0.4274 and −0.3839
logFC ([6]; TAOK2 (Q9UL54-2), experiment wp160, 8 hr): −0.5973
logFC ([6]; TNK2 (Q07912-3), experiment wp107, direction down): −0.8258
logFC ([6]; TNK2 (Q07912-3), experiment wp117, direction down): −0.9833
logFC MAP3K20 (Q9NYL2-2) ([6]; experiment wp045): −1.182
logFC LCK (P06239-3) [6, 9]: −0.5631
logFC MAP3K20 (Q9NYL2-2) ([6]; experiment wp103): −0.7004
logFC CDK11B (P21127-3) [6, 10]: −0.3334
logFC LCK (P06239-3) [6, 10]: −0.4496
logFC of LYN (P07948-2) ([6]; experiment wp105): −0.985
logFC of MAPK8 (P45983-3) ([6]; experiment wp105): −0.4094
logFC MAP3K20 (Q9NYL2-2) ([6]; experiment wp107): −0.7825
logFC LCK (P06239-3) [6, 11]: −0.3963
logFC MAP3K20 (Q9NYL2-2) ([6]; experiment wp114): −0.8962
logFC MAP3K20 (Q9NYL2-2) ([6]; experiment wp117): −0.6701
logFC LCK (P06239-3) [6, 12]: −0.4202
logFC of MAPK8 (P45983-3) ([6]; experiment wp160, 4 hr): −0.611
logFC of MAPK8 (P45983-3) ([6]; experiment wp160, 8 hr): −1.01
logFC TAOK2 (Q9UL54-2) ([6]; experiment wp160, 8 hr, direction of change down): −0.5973
Total no. kinase hits ([6]; number of degraded kinases per library compound): 33
